For the assay, the system named is NF-kappa B. In words: Evaluation of inhibition of NF-kappa B: β-gal reporter in immortalized HUVEC induced with IL-1β. The format is cell-based. The settings on record: Homo sapiens; HUVEC with NF-kappa B-driven β-gal reporter; 1 ng/ml IL-1β added 30 minutes after compound; β-gal activity determined 16 hours after; read-out: NFkB inhibiting activity IC50. The source says:
Evaluation of Inhibition of NF-Kappa B:
Cells used in the tests were obtained by stably introducing E. coli β-galactosidase (β-gal) genes into human normal umbilical vein endothelial cells (HUVEC) immortalized with SV 40 large T antigen. The genes were those driven by SV40 minimum promoter fused with 6 times of the NF-kappa B binding motif derived, from immunoglobulin kappa light-chain enhancer. The cells were subcultured in RPMI medium containing 10% of FBS, and spread on 96-well plates in a concentration of 1×10^4/well the day before the initiation of the experiments. The compound of the present invention was dissolved in DMSO in a suitable concentration and fed into the 96-well plates so that the final concentration of DMSO would be not higher than 1%. 30 minutes after the addition of the compound, NF-kappa B activity was induced with 1 ng/ml of IL-1β in each well. The β-gal activity was determined 16 hours after. The β-gal activity was determined with a chemical photogenic substrate (Galacton-Light-Plus: Boehringer Mannheim) according to the protocol attached to the reagent.

≈ marks a conversion by molar mass, not a printed value.

One may read the IC50 as the concentration that inhibits the measured activity by half. Consider `CC1(C)CC1C(=O)Nc1ccc(C(O)c2ccccc2)cc1NC(=O)C1CC1(C)C` (stereo not shown) [Example 2], for which the IC50 was 1 µg/mL (≈ 2.46 µM).

For the origin of these results see patent publication US6563002B2, “Biscyclopropanecarboxamide compounds and pharmaceutical use thereof” (Ajinomoto Co., Inc., priority 1999, dated 2003).
